Reference: patent US9174942B2, “IDO inhibitors” (NewLink Genetics Corporation, priority 2008, dated 2015)

The compounds below were run against T1, purified human IDO protein (Homo sapiens, UniProt P14902, E119G/P110S) (assay: Enzymatic IDO assay (kynurenine formation, absorbance at 480 nm)). Conditions: recombinant human IDO, 200 μM L-tryptophan, pH 6.5; reported in ranges.
T1 construct: 6-Histidine tag (C); made in house; host or cells: E. coli M15(pREP4) transformed with pQE70-hIDO
T1 sequence (P14902 whole entry P110S/E119G): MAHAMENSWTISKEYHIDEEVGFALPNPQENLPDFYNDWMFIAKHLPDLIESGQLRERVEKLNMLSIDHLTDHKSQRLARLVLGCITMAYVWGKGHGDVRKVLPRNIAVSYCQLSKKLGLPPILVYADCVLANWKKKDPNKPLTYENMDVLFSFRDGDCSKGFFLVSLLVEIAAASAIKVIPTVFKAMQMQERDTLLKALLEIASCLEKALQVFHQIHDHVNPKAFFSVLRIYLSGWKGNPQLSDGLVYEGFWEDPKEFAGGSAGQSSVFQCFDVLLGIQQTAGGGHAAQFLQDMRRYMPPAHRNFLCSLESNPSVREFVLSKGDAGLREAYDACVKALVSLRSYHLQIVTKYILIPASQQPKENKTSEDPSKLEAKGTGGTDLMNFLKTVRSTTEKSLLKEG
Type: biochemical
Method: The inhibitors were initially diluted in DMSO at 100 mM and were diluted in potassium phosphate 50 mM, added to the reaction mixture at final concentrations raging from 1 mM to 5 nM and preincubated with the enzyme for 5 min at 25° C. The reaction was started by addition of L-tryptophan to 200 μM and incubated 15 min at 37° C. The reaction was stopped by addition of 0.5 vol of 30% trichloroacetic acid and incubated 30 min at 60° C. to hydrolyze N-formylkynurenine to kynurenine. The reaction was centrifuged at 3400 g for 5 min to remove precipitated protein and the supernatant was reacted with 2% (w/v) of p-dimethylaminobenzaldehyde in acetic acid. The reaction was incubated 10 min at 25° C. and read at 480 nm in a spectrophotometer. […] Nonlinear regressions and determination of the IC50 values were performed using the GraphPad Prism 4 software.
`O=[N+]([O-])c1ccc(Cn2cncc2-c2ccccc2)cc1` [Compound 85, 1-(4-nitrobenzyl)-5-phenyl-1H-imidazole] was tested, and the IC50 was 20 to 100 µM.
`CC(C)(C)OC(=O)NCCCCn1cncc1-c1ccccc1` [Compound 86, tert-butyl 4-(5-phenyl-1H-imidazol-1-yl)butylcarbamate] showed an IC50 of 20 to 100 µM.
For `Clc1cccc(Cn2cncc2-c2ccccc2)c1` [Compound 87, 1-(3-chlorobenzyl)-5-phenyl-1H-imidazole], the IC50 was 20 to 100 µM.
In the case of `COc1ccccc1-c1cncn1CCC(C)(C)C` [Compound 89, 1-(3,3-dimethylbutyl)-5-(2-methoxyphenyl)-1H-imidazole], the IC50 is reported as 20 to 100 µM.
For `Cc1cccc(Cn2cncc2-c2ccccc2)c1` [Compound 90, 1-(3-methylbenzyl)-5-phenyl-1H-imidazole], the IC50 was 20 to 100 µM.
`Clc1ccc(COc2ccc(OCc3ccc(Cl)cc3)c(-c3c[nH]cn3)c2)cc1` [Compound 91, 4-(2,5-bis(4-chlorobenzyloxy)phenyl)-1H-imidazole] showed an IC50 of 20 to 100 µM.
In the case of `NCCCOc1ccccc1-c1cnc[nH]1` [Compound 92, 3-(2-(1H-imidazol-5-yl)phenoxy)propan-1-amine], the IC50 is reported as 20 to 100 µM.
Work on `COc1cccc(Cn2cncc2-c2ccccc2)c1` [Compound 93, 1-(3-methoxybenzyl)-5-phenyl-1H-imidazole] yielded an IC50 of 20 to 100 µM.
With `N#Cc1cccc(-c2c[nH]cn2)c1` [Compound 94, 3-(1H-imidazol-5-yl)benzonitrile] the IC50 was 20 to 100 µM.
`O=[N+]([O-])c1cccc(Cn2cncc2-c2ccccc2)c1` [Compound 95, 1-(3-nitrobenzyl)-5-phenyl-1H-imidazole] gave an IC50 of 20 to 100 µM.
With `N#Cc1ccccc1Cn1cncc1-c1ccccc1` [Compound 96, 2-((5-phenyl-1H-imidazol-1-yl)methyl)benzonitrile] the IC50 was 20 to 100 µM.
`N#Cc1ccc(Cn2cncc2-c2ccccc2)cc1` [Compound 97, 4-((5-phenyl-1H-imidazol-1-yl)methyl)benzonitrile] gave an IC50 of 20 to 100 µM.
`c1cnc(NCCCOc2ccccc2-c2cnc[nH]2)nc1` [Compound 98, N-(3-(2-(1H-imidazol-5-yl)phenoxy)propyl)pyrimidin-2-amine] gave an IC50 of 100 to 500 µM.
In the case of `N#Cc1ccccc1COc1ccccc1-c1c[nH]cn1` [Compound 99, 2-((2-(1H-imidazol-4-yl)phenoxy)methyl)benzonitrile], the IC50 is reported as 100 to 500 µM.
`CC(=O)N1CCC(COc2ccccc2-c2c[nH]cn2)CC1` [Compound 100, 1-(4-((2-(1H-imidazol-4-yl)phenoxy)methyl)piperidin-1-yl)ethanone] showed an IC50 of 100 to 500 µM.
In the case of `CS(=O)(=O)Nc1ccccc1-c1c[nH]cn1` [Compound 101, N-(2-(1H-imidazol-4-yl)phenyl)methanesulfonamide], the IC50 is reported as 100 to 500 µM.
For `c1cnc(NCCOc2ccccc2-c2cnc[nH]2)nc1` [Compound 102], the IC50 was 100 to 500 µM.
Work on `COc1cccc(OC)c1-c1c[nH]cn1` [Compound 103, 5-(2,6-dimethoxyphenyl)-1H-imidazole] yielded an IC50 of 100 to 500 µM.
For `NC(=O)COc1ccccc1-c1c[nH]cn1` [Compound 104, 2-(2-(1H-imidazol-4-yl)phenoxy)acetamide], the IC50 was 100 to 500 µM.
`COC(=O)Cn1cncc1-c1ccccc1` [Compound 105, methyl 2-(5-phenyl-1H-imidazol-1-yl)acetate] was tested, and the IC50 was 100 to 500 µM.
For `CC(C)(C)CCn1cncc1-c1ccccc1OCc1ccc(Cl)cc1` [Compound 106, 5-(2-(4-chlorobenzyloxy)phenyl)-1-(3,3-dimethylbutyl)-1H-imidazole], the IC50 was 100 to 500 µM.
Work on `O=CNCCOc1ccccc1-c1c[nH]cn1` [Compound 107, N-(2-(2-(1H-imidazol-4-yl)phenoxy)ethyl)formamide] yielded an IC50 of 100 to 500 µM.
For `COc1ccccc1Cn1cncc1-c1ccccc1` [Compound 110, 1-(2-methoxybenzyl)-5-phenyl-1H-imidazole], the IC50 was 100 to 500 µM.
`CCc1ccc(O)c(-c2cnc[nH]2)c1` [Compound 111, 4-ethyl-2-(1H-imidazol-5-yl)phenol] gave an IC50 of 100 to 500 µM.
`COC(=O)c1cccc(-c2c[nH]cn2)c1` [Compound 112, methyl 3-(1H-imidazol-4-yl)benzoate] gave an IC50 of 100 to 500 µM.
In the case of `O=C(O)c1cccc(-c2c[nH]cn2)c1` [Compound 113, 3-(1H-imidazol-4-yl)benzoic acid], the IC50 is reported as 100 to 500 µM.
`CC(C)(C)OC(=O)NCCn1cncc1-c1ccccc1` [Compound 114, tert-butyl 2-(5-phenyl-1H-imidazol-1-yl)ethylcarbamate] was tested, and the IC50 was 100 to 500 µM.
Work on `COC(=O)c1ccc(-c2c[nH]cn2)cc1` [Compound 115, methyl 4-(1H-imidazol-4-yl)benzoate] yielded an IC50 of 100 to 500 µM.
`CC(=O)N1CCCC(COc2ccccc2-c2c[nH]cn2)C1` (stereo not drawn) [Compound 117, 1-(3-((2-(1H-imidazol-4-yl)phenoxy)methyl)piperidin-1-yl)ethanone] was tested, and the IC50 was 100 to 500 µM.
`NCCn1cncc1-c1ccccc1` [Compound 118, 2-(5-phenyl-1H-imidazol-1-yl)ethanamine] was tested, and the IC50 was 100 to 500 µM.
For `O=C(O)c1ccc(-c2c[nH]cn2)cc1` [Compound 119, 4-(1H-imidazol-4-yl)benzoic acid], the IC50 was 100 to 500 µM.
`CCOC(=O)CCCn1cncc1-c1ccccc1` [Compound 121, ethyl 4-(5-phenyl-1H-imidazol-1-yl)butanoate] gave an IC50 of 100 to 500 µM.
For `CCOC(=O)CCn1cncc1-c1ccccc1` [Compound 122, ethyl 3-(5-phenyl-1H-imidazol-1-yl)propanoate], the IC50 was 100 to 500 µM.
`c1ccc(Cc2nc[nH]c2-c2ccccc2)cc1` [Compound 123, 4-benzyl-5-phenyl-1H-imidazole] showed an IC50 of 100 to 500 µM.
`CC(=O)NCCCn1cncc1-c1ccccc1` [Compound 124, N-(3-(5-phenyl-1H-imidazol-1-yl)propyl)acetamide] showed an IC50 of 100 to 500 µM.
In the case of `Oc1ccc(Cn2cncc2-c2ccccc2)cc1` [Compound 125, 4-((5-phenyl-1H-imidazol-1-yl)methyl)phenol], the IC50 is reported as 100 to 500 µM.
Compound `c1ccc(CCc2nc[nH]c2-c2ccccc2)cc1` [Compound 126, 4-phenethyl-5-phenyl-1H-imidazole] has an IC50 of 100 to 500 µM.
`CC(=O)NCCCCn1cncc1-c1ccccc1` [Compound 127, N-(4-(5-phenyl-1H-imidazol-1-yl)butyl)acetamide] gave an IC50 of 100 to 500 µM.
For `CNC(=O)CCCn1cncc1-c1ccccc1` [Compound 128, N-methyl-4-(5-phenyl-1H-imidazol-1-yl)butanamide], the IC50 was 100 to 500 µM.
`NC(=O)CCCn1cncc1-c1ccccc1` [Compound 129, 4-(5-phenyl-1H-imidazol-1-yl)butanamide] showed an IC50 of 100 to 500 µM.
Work on `NC(=O)c1ccc(COc2ccccc2-c2c[nH]cn2)cc1` [Compound 146, 4-((2-(1H-imidazol-4-yl)phenoxy)methyl)benzamide] yielded an IC50 of 20 to 100 µM.
In the case of `Clc1ccc(COc2cc(Cl)ccc2-c2c[nH]cn2)cc1` [Compound 147, 4-(4-chloro-2-(4-chlorobenzyloxy)phenyl)-1H-imidazole], the IC50 is reported as 20 to 100 µM.
Compound `Brc1ccccc1CCOc1ccccc1-c1c[nH]cn1` [Compound 148, 4-(2-(2-bromophenethoxy)phenyl)-1H-imidazole] has an IC50 of under 20 µM.
Compound `Clc1ccccc1OCCc1ccccc1-c1c[nH]cn1` [Compound 149, 4-(2-(2-(2-chlorophenoxy)ethyl)phenyl)-1H-imidazole] has an IC50 of 20 to 100 µM.
`CC(C)(C)OC(=O)N1CCC(CCOc2ccccc2-c2c[nH]cn2)CC1` [Compound 150, tert-butyl 4-(2-(2-(1H-imidazol-4-yl)phenoxy)ethyl) piperidine-1-carboxylate] gave an IC50 of 20 to 100 µM.
